Experimental data taken from patent US6908930B2, “4-substituted 7-AZA-indolin-2-ones and their use as protein kinase inhibitors” (Sugen, Inc., priority 1999, dated 2005).
Read-outs that look alike come from different tables or passages of the source.

Experiments:
EGFR = molecular target: T1, EGFR (Homo sapiens, UniProt P00533); assay: Assay for modulation of EGFR activity (ELISA); assay type: biochemical
T1 construct: A431 […] cell lysate is stored at −80° C; host or cells: A431 cell lysate
Method: Using the following reagents, supplies, and method, the ability of compounds of the invention to modulate the in vitro activity of EGFR can be readily determined in an ELISA.
A431 […] cell lysate is stored at −80° C.
ATP/MnCl2 phosphorylation mix is prepared by adding 300 μL of 1.0 mM ATP and […] of 1M MnCl2 to 9.2 mL of dH2O and mixing. Ten mL of phosphorylation mix is enough for about 6 assay plates. Note that the mixture should be made fresh and kept on ice immediately before use, and that although the preferred ATP is fresh from powder stock, any remaining stock solution of ATP may be frozen at −20° C. in small aliquots to be used at a later time.
(§1) Coat Corning 96 well ELISA plates with 0.5 μg per well with SUMO1 in a volume of 100 μL PBS overnight, at 4° C. Remove unbound SUMO1 from wells by inverting plate to remove liquid. Wash 1× with distilled H2O by filling wells. Pat the plate on a paper towel to remove excess liquid.
Add 150 μL of Blocking Buffer to each well. Incubate for 30 minutes at room temperature, with shaking. Wash plate 3× with deionized water, then once with TBST. Pat plate on a paper towel to remove excess liquid and bubbles.
Dilute lysate in PBS (7 μg lysate/[…]) and add 100 μL of diluted lysate to each well. Shake at room temperature for 60 minutes. Wash 1× with distilled H2O by filling wells. Pat the plate on a paper towel to remove excess liquid.
Add 120 μL TBST to ELISA plate containing captured EGFR.
Dilute drugs/extracts 1:10 (unless specified otherwise) in TBST in 96-well polypropylene plates. (i.e., 10 μL compound+90 μL TBST). Add 13.5 μL diluted drugs/extracts to ELISA plate. […] Incubate for 30 minutes while shaking at room temperature.
Approximately 150 μL final volume in well with 3 uM ATP/5 mM MnCl2 final concentration in well. Incubate 5 minutes while shaking. Note that this is a timed event. It is critical that ATP/MnCl2 phosphorylates the receptor for only 5 minutes. It is best to add the ATP/MnCl2 with an automated 96 place pipettor workstation, then 5 minutes later stop the reaction with EDTA using the same workstation. Alternatively, addition can be performed using a 12 channel pipettor 1 row at a time, leaving 20 seconds between each row so that the reaction may be stopped with EDTA exactly 5 minutes later (this depends on the number of plates being phosphorylated in one batch). Shake between each addition.
[…] This is done using either the same work station as above, or the same timing method employed with the 12 channel pipettor. After the EDTA has been added, shake for 1 minute. Wash 4× with deionized water, twice with TBST.
Add 100 μL per well of anti-phosphotyrosine (1:3000 dilution in TBST). Incubate 30-45 minutes at room temperature, with shaking. Wash 1× with distilled H2O by filling wells. Pat the plate on a paper towel to remove excess liquid.
Incubate 30 minutes at room temperature, with shaking. Wash 1× with distilled H2O by filling wells. Pat the plate on a paper towel to remove excess liquid.
Add 100 μL of ABTS/H2O2 solution to each well. Incubate 5 to 10 minutes while shaking. Remove any bubbles. If necessary stop reaction with the addition of 100 μL of 0.2M HCl per well.
(§2) Read assay on Dynatech MR7000 ELISA reader.

PDGFR = molecular target: T2, PDGFR (Homo sapiens, UniProt P09619); assay: Assay for modulation of PDGFR activity (ELISA); assay type: biochemical; details: read-out: bio PDGFR IC50
T2 construct: expressed in transfected cells; host or cells: NIH3T3
T2 sequence (P09619 33-1106, species assumed): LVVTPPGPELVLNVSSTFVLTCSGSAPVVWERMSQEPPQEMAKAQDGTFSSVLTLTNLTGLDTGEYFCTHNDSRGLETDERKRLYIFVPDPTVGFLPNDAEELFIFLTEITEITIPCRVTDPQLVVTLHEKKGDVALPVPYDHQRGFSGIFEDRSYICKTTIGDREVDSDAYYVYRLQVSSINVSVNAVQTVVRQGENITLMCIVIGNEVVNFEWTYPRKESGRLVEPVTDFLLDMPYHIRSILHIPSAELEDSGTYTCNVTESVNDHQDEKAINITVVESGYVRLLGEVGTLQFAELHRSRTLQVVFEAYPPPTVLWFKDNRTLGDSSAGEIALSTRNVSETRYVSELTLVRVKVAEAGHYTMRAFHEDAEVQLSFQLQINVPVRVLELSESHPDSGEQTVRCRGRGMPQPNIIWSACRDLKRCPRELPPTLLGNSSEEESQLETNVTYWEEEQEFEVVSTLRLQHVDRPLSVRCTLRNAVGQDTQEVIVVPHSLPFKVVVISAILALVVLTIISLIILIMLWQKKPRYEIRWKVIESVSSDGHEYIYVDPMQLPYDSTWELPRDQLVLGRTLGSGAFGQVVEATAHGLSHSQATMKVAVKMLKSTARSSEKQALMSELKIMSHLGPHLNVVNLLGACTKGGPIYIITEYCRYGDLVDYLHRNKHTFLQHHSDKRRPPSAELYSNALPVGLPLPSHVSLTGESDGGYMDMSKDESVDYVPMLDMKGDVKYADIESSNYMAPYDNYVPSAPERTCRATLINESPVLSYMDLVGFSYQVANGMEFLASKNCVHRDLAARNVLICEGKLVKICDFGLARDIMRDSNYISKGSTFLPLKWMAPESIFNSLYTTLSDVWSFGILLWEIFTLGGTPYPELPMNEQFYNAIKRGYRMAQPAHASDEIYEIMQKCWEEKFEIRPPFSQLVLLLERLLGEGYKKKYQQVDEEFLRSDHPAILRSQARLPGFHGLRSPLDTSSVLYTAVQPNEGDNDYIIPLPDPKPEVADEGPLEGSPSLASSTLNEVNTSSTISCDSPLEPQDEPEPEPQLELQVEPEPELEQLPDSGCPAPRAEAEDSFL
Method: Using the following reagents, supplies, and methods, the ability of the compounds of the invention to modulate the in vitro activity of the PDGFR can be readily determined in an enzyme-linked immunosorbent assay (ELISA).
Monoclonal anti-PDGFR antibody (28D4C10) is stored at −20° C. in 50 mL tubes prior to use.
Lysates from PDGFR-β expressing NIH3T3 cells are obtained and stored at −80° C. in 1 mL aliquots. PDGFR-β expression in eukaryotic cells is well known in the art. Lysates are prepared by the following method. Place carrier dishes in ice trays, and after cooling, remove the media and replace with ice cold PBS. Remove the PBS and repeat. […] Take up lysate with a pipettor and add to a 30 mL centrifuge tube on ice. Vortex the tubes for 30-60 seconds and then centrifuge for 10 minutes at 7000 rpm in a J-20 rotor which has been precooled to below 0° C. Recover the supernatants and combine them in a 250 mL tube and place on ice. Perform protein determination to measure the total quantity of protein per mL of solution. Aliquot the lysate into 1 mL fractions and store at −80° C.
as §1, with “28D4C10 antibody” for “with SUMO1”, “μl” for “μL”, “and remove” for “Remove”, “antibody, 28D4C10,” for “SUMO1”
Add 150 μL of Blocking Buffer to each well. Incubate for 30 minutes at room temperature, with shaking and wash plate 3× with deionized water, then once with TBST. Pat plate on a paper towel to remove excess liquid and bubbles
Dilute lysate in PBS (10 mg lysate/100 μL PBS). Add 100 μL of diluted lysate to each well. Shake at room temperature for 60 min. Wash plate 3× with deionized water, then once with TBST. Pat plate on a paper towel to remove excess liquid and bubbles.
Add 80 μL Kinase Buffer to ELISA plate containing captured PDGFR.
Dilute drugs/extracts 1:10 (unless specified otherwise) in TBS+10% DMSO in 96-well polypropylene plates. (i.e., 10 μL compound+90 μL (TBS+10% DMSO)). Add 10 μL diluted drugs/extracts to ELISA plate. […] Incubate for 30 minutes while shaking at room temperature.
After 30 minutes stop reaction with addition of 10 μL of 200 mM EDTA pH 8.0 for 20 mM final in well. Wash 4× with deionized water, twice with TBST.
Incubate 30-45 minutes at room temperature, with shaking. Wash plate 3× with deionized water, then once with TBST. Pat plate on a paper towel to remove excess liquid and bubbles.
Incubate 30 minutes at room temperature with shaking. Wash plate 3× with deionized water, then once with TBST. Pat plate on a paper towel to remove excess liquid and bubbles.
Add 100 μL of ABTS/H2O2 solution to each well. Incubate 10 to 30 minutes while shaking. Remove any bubbles. If necessary stop reaction with the addition of 100 μL of 0.2M HCl per well
as §2

T1 sequence (P00533 25-1210): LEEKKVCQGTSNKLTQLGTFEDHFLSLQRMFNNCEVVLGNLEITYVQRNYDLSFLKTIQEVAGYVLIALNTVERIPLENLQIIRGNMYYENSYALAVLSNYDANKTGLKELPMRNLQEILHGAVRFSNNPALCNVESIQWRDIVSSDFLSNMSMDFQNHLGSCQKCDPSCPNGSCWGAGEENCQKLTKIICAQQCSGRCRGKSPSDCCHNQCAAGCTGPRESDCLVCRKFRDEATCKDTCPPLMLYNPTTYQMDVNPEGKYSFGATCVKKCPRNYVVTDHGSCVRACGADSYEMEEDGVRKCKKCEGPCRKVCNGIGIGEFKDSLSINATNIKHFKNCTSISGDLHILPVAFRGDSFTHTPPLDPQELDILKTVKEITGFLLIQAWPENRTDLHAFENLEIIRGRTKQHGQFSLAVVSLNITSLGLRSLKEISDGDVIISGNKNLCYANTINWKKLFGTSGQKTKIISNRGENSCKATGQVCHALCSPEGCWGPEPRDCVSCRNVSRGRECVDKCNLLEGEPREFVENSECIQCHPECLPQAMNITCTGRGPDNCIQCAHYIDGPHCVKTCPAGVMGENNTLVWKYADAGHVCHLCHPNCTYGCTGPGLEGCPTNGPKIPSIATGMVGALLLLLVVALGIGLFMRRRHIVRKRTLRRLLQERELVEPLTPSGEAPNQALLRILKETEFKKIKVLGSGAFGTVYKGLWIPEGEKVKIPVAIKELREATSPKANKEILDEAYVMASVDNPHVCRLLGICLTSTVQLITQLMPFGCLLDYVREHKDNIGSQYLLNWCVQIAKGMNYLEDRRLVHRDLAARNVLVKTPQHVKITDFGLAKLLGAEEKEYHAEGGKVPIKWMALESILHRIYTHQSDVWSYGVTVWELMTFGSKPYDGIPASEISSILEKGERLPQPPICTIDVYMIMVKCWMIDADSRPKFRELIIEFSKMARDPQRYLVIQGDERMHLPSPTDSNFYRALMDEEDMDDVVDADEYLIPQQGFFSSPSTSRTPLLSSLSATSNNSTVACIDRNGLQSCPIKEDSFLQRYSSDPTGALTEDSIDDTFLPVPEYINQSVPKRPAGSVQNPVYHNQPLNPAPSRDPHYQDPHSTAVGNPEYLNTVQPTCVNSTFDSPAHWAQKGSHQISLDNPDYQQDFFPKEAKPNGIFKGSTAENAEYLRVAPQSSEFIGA

Compound	IC50 (EGFR; read-out: bio EGFR IC50) [nM]	IC50 (PDGFR) [nM]	IC50 (EGFR) [nM]
Cc1[nH]c(C=C2C(=O)Nc3ncnc(Nc4ccc(F)c(Cl)c4)c32)c(C)c1CCC(=O)O [Formula 19, 3-{5-[4-(3-CHLORO-4-FLUORO-PHENYLAMINO)-6-OXO-6,7-DIHYDRO-PYRROLO[2,3-D]PYRIMIDIN-5-YLIDENEMETHYL]-2,4-DIMETHYL-1H-PYRROL-3-YL}-PROPIONIC ACID]	170	12800	–
Cc1[nH]c(/C=C2\C(=O)Nc3ncnc(Nc4ccc(F)c(Cl)c4)c32)c(C)c1CCC(=O)N1CCCC1 [Formula 24]	890	> 20000	–
Cc1cc(C(=O)N2CCOCC2)[nH]c1/C=C1\C(=O)Nc2ncnc(Nc3ccc(F)c(Cl)c3)c21 [Formula 26]	–	–	160
Cc1c(C(=O)N2CCN(C)CC2)c[nH]c1/C=C1\C(=O)Nc2ncnc(Nc3ccc(F)c(Cl)c3)c21 [Formula 29]	–	–	450
Cc1[nH]c(/C=C2\C(=O)Nc3ncnc(Nc4ccc(F)c(Cl)c4)c32)c(C)c1CCC(=O)N1CCOCC1 [Formula 30]	770	> 20000	–
O=C1Nc2ncnc(Nc3ccc(F)c(Cl)c3)c2/C1=C/c1ccc(C(=O)N2CCOCC2)[nH]1 [Formula 33]	900	> 20000	–
Cc1cc(C)c(/C=C2\C(=O)N(C)c3ncnc(Nc4ccc(F)c(Cl)c4)c32)[nH]1 [Formula 38]	5600	–	–
Cc1cc(C(=O)N2CCN(C)CC2)[nH]c1/C=C1\C(=O)Nc2ncnc(Nc3ccc(F)c(Cl)c3)c21 [Formula 39]	–	–	4
Cc1[nH]c(/C=C2\C(=O)N(C)c3ncnc(Nc4ccc(F)c(Cl)c4)c32)c(C)c1CCC(=O)O [Formula 40]	4200	–	–
Cc1[nH]c(/C=C2\C(=O)Nc3ncnc(Nc4ccc(F)c(Cl)c4)c32)c(C)c1C(=O)N1CCN(C)CC1 [Formula 41]	540	> 20000	–
Cc1cc(CCC(=O)O)[nH]c1/C=C1\C(=O)N(C)c2ncnc(Nc3ccc(F)c(Cl)c3)c21 [Formula 42]	10400	–	–
Cc1[nH]c(/C=C2\C(=O)Nc3ncnc(Nc4ccc(F)c(Cl)c4)c32)c(C)c1C(=O)N1CCOCC1 [Formula 43]	860	> 20000	–
Cc1[nH]c(/C=C2\C(=O)N(C)c3ncnc(Nc4ccc(F)c(Cl)c4)c32)c(C)c1CCCN1CCOCC1 [Formula 44]	> 20000	–	–
CN1CCN(C(=O)c2ccc(/C=C3\C(=O)Nc4ncnc(Nc5ccc(F)c(Cl)c5)c43)[nH]2)CC1 [Formula 45]	50	> 20000	–
Cc1cc(C(=O)N2CCOCC2)[nH]c1/C=C1\C(=O)Nc2ncnc(NC(C)c3ccccc3)c21 (stereo not shown) [Formula 46]	1.2	–	–
Cc1cc(C(=O)O)[nH]c1/C=C1\C(=O)Nc2ncnc(Nc3ccc(F)c(Cl)c3)c21 [Formula 47]	36	–	–
Cc1cc(C(=O)N2CC(C)N(C)C(C)C2)[nH]c1/C=C1\C(=O)Nc2ncnc(Nc3ccc(F)c(Cl)c3)c21 (stereo not shown) [Formula 53]	< 156	–	–
CCN1CCN(C(=O)c2cc(C)c(/C=C3\C(=O)Nc4ncnc(Nc5ccc(F)c(Cl)c5)c43)[nH]2)CC1 [Formula 54]	< 156	–	–
